We go through 1 molecule from paper PMC2902621 (Archives of biochemistry and biophysics, 2010).

This assay concerns the target cytochrome c peroxidase (CcP) (Saccharomyces cerevisiae, UniProt P00431, R115A/T120I/D219G/W258F). The assay is described as follows: UV-visible optical titration of ferric enzyme. Type of assay: binding.

cytochrome c peroxidase (CcP), sequence (P00431 68-361 R115A/T120I/D219G/W258F): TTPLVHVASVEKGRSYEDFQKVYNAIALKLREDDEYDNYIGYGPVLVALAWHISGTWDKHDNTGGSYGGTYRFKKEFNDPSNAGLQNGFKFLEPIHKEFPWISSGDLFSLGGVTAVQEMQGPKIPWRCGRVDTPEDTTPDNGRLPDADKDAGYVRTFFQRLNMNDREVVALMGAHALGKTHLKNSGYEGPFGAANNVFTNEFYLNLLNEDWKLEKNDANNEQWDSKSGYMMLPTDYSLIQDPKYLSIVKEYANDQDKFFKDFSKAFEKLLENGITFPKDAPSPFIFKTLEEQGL

`N=C(N)NO` [NHG, N-hydroxyguanidine]: binding was characterised by a dissociation constant (Kd) of 3.37 mM.
